Source: patent publication US8354399B2, “Substituted indazole derivatives active as kinase inhibitors” (Nerviano Medical Sciences S.R.L., priority 2008, dated 2013)

Tests used:
ALK = molecular target: T1, ALK (Homo sapiens, UniProt Q9UM73); experiment: Biochemical assay for inhibitors of ALK kinase activity
T1 construct: made in house; host or cells: Sf21 insect cells (baculovirus)
Excerpt: Preparation of ALK Cytoplasmic Domain for Use in Biochemical Assay
ALK cytoplasmic domain, corresponding to the residue 1060-1620 (the numbers of the amino acid residues refer to the Genbank accession number NP 004295.2) was PCR amplified from a human testis cDNA library.
For cloning purposes, the oligonucleotides included attB sites in order to obtain an attB-flanked PCR product suitable for cloning using the Gateway technology (Invitrogen). Furthermore, for purification purposes, forward primer included a PreScission cleavage site (Amersham Biosciences). The resulting PCR product was cloned in the baculovirus expression vector pVL1393 (Invitrogen) Gateway-modified. For expression and purification purpose, a GST tag was added N-terminal to the ALK cytoplasmic domain. Cloning was performed according to the protocols described in the Gateway manual (Invitrogen).
Biochemical Assay for Inhibitors of ALK Kinase Activity
ALK enzyme needs pre-activation in order to linearize reaction kinetics.
Kinase buffer was composed of 50 mM HEPES pH 7.5 containing 1 mM MnCl2, 5 mM MgCl2, 1 mM DTT, 3 microM Na3VO4, and 0.2 mg/mL BSA. 3× KB is buffer of the same composition and pH as KB, but with three times the concentration of each component.
The kinase assay was run with a final enzyme concentration of 20 nM, in the presence of 8 microM ATP, 1 nM ^33P-γ-ATP and 2 microM MBP. The MPB was purchased from Sigma-Aldrich, St. Louis, Mo., USA.

IGF-1R = molecular target: T2, IGF-1R (Homo sapiens, UniProt P08069); experiment: Biochemical assay for inhibitors of IGF-1R kinase activity
T2 construct: amino acid residues 960-1367 of precursor protein; made in house; host or cells: H5 insect cells (baculovirus; virus generated in Sf21)
Experimental: Preparation of IGF-1R for Use in Biochemical Assay
Human cDNA was used as template for amplification by polymerase chain reaction (PCR) of the predicted cytoplasmic portion of IGF-1R (amino acid residues 960-1367 of precursor protein; see NCBI Entrez Protein Accession #P08069) which includes the entire kinase domain. PCR was conducted using the forward primer sequence
Biochemical Assay for Inhibitors of IGF-1R Kinase Activity
The inhibitory activity of putative kinase inhibitors and the potency of selected compounds were determined using a trans-phosphorylation assay.
A specific substrate was incubated with the kinase in appropriate buffer conditions in the presence of ATP traced with ^33P-γ-ATP (gamma phosphate-labeled, Redivue™ Code Number AH9968, 1000-3000Ci/mmole, Amersham Biosciences Piscataway, N.J., USA), optimal cofactors and test compound.
At the end of the phosphorylation reaction, more than 98% cold and radioactive ATP were captured by an excess of Dowex ion exchange resin. The resin was allowed to settle to the bottom of reaction wells by gravity. Supernatant, containing substrate peptide, was subsequently withdrawn and transferred into a counting plate, and radioactivity (corresponding to phosphate incorporated into peptide) was evaluated by β-counting.
Kinase buffer was composed of 50 mM HEPES pH 7.9 containing 3 mM MnCl2, 1 mM DTT, 3 microM Na3VO4, and 0.2 mg/mL BSA. 3× KB is buffer of the same composition and pH as KB, but with three times the concentration of each component.
Prior to starting the kinase inhibition assay, IGF-1R was pre-phosphorylated in order to linearize reaction kinetics. To achieve this, the desired total quantity of enzyme was prepared at an enzyme concentration of 360 nM in KB containing 100 microM ATP, and this preparation was incubated for 30 min at 28° C. 3× Enzyme Mix was obtained by diluting this preactivated enzyme 20-fold in 3× KB. […]

JAK2 = molecular target: T3, JAK2 (Homo sapiens, UniProt O60674); experiment: Biochemical assay for inhibitors of JAK2 kinase activity
T3 construct: The assay has been performed using the commercially available JAK2 kinase domain; purchased Invitrogen, Eugene, Oreg
Excerpt: Biochemical Assay for Inhibitors of JAK2 Kinase Activity
General Principle—A specific JAK2 peptide substrate is trans-phosphorylated by JAK2 kinase in the presence of ATP traced with ^33P-γ-ATP. At the end of the phosphorylation reaction, 98% of the cold and radioactive ATP is captured by an excess of dowex ion exchange resin that eventually settles by gravity to the bottom of the reaction plate. The supernatant is subsequently withdrawn and transferred into a counting plate that is then evaluated by β-counting.
JAK2 Kinase Buffer (KB—Kinase buffer was composed of 50 mM HEPES pH 7.5 containing 10 mM MgCl2, 2.5 mM DTT, 10 microM Na3VO4, and 0.2 mg/mL BSA. 3× KB is buffer of the same composition and pH as KB, but with three times the concentration of each component.
Assay conditions—The JAK2 kinase assay was run with a final enzyme concentration of 1 nM, in the presence of 60 microM ATP, 3 nM 33P-γ-ATP and 64 microM of substrate Jaktide (Aminoacid sequence: LPLDKDYYVVREPGQ). The Jaktide was purchased from American Peptide Company (Sunnyvale, Calif.).
Compound Dilution—For IC50 determination, test compounds are received as a 1 mM solution in 100% DMSO, distributed into 96 well plates: compounds are then plated into the first column of a microtiter plate (A1 to G1), 100 μl/well. […]
Another mixing cycle is performed after all the plates are stopped, this time using normal tips: the plates are then allowed to rest for about one hour in order to maximize ATP capture. At this point, 27 μl of the supernatant are transferred into 384-Optiplates (Perkin-Elmer), with 50 μl of Microscint 40 (Perkin-Elmer); after 5 min of orbital shaking the plates are read on a Perkin-Elmer Top Count radioactivity counter.
Data Fitting—Data are analyzed by an internally customized version of the SW package “Assay Explorer” that provides sigmoidal fitting of the ten-dilutions curves for IC50 determination in the secondary assays/hit confirmation routines.

T3 sequence (O60674 849-1124 limits assumed): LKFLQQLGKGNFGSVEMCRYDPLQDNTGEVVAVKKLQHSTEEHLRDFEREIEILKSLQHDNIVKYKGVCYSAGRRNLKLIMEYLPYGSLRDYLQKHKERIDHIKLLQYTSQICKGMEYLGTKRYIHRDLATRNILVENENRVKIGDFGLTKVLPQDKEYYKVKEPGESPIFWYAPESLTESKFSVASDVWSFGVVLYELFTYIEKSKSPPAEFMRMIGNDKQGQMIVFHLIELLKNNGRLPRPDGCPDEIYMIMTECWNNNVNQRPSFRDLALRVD
T2 sequence (P08069 960-1367): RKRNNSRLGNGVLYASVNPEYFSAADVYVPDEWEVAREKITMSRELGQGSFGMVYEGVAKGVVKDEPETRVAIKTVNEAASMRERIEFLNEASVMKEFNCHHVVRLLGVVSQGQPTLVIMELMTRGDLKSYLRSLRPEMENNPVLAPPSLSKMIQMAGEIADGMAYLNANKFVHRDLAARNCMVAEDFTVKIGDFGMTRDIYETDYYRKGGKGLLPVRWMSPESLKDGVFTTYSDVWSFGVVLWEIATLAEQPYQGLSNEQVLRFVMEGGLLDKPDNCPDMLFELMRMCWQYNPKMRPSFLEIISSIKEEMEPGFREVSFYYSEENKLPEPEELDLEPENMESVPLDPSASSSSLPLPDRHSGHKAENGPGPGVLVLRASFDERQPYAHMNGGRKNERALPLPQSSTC
T1 sequence (Q9UM73 1060-1620): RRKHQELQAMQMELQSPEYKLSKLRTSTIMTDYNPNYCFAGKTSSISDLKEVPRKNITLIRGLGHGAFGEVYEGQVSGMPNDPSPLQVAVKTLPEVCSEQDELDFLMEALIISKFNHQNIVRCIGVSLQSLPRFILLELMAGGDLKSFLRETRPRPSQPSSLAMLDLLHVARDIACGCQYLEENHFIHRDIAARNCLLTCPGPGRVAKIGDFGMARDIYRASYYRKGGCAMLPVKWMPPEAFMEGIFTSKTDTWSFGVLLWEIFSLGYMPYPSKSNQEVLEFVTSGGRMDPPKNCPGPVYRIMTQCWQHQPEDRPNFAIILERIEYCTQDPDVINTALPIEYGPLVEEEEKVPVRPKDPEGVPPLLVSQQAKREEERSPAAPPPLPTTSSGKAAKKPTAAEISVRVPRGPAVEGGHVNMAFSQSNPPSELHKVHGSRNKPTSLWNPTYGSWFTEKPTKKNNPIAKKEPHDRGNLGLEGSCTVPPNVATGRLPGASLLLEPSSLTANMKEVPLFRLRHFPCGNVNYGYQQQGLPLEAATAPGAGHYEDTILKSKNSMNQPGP

Row | IC50 (ALK) [µM] | IC50 (IGF-1R) [µM] | IC50 (JAK2) [µM] | SMILES
1 | 0.02 | 0.14 | 0.02 | CN1CCN(c2ccc(C(=O)Nc3n[nH]c4ccc(OCc5cc(F)cc(F)c5)cc34)c(NC3CCOCC3)c2)CC1 [Cpd. 8, N-{5-[(3,5-difluorobenzyl)oxy]-1H-indazol-3-yl}-4-(4-methylpiperazin-1-yl)-2-(tetrahydro-2H-pyran-4-ylamino)benzamide]
2 | 1.87 | > 10 | 0.22 | O=C(Nc1n[nH]c2ccc(OCc3cc(F)cc(F)c3)cc12)c1ccccc1 [Ref. compound, reference compound]
3 | 0.01 | 0.2 | 0.01 | CN1CCN(c2ccc(C(=O)Nc3n[nH]c4ccc(OCc5cc(F)cc(F)c5)cc34)c(NCCF)c2)CC1 [Cpd. 36, N-{5-[(3,5-difluorobenzyl)oxy]-1H-indazol-3-yl}-2-[(2-fluoroethyl)amino]-4-(4-methylpiperazin-1-yl)benzamide]
